In US12491145B2, “Synthesis and purification of cannabigerol and its application” (SYMRISE AG, priority 2019, dated 2025):

Assays:
[1] = system: B16 melanoma cells; experiment: Determination of melanin content in B16 cells; format: cell-based, mouse
Description: (§1) Cell Culture. The cell line B16 (mouse melanocytes, obtained from ATCC and part of SimDerma platform) was maintained in supplemented DMEM medium containing 10% FBS and 1% antibiotics penicillin/streptomycin (DMEM complete medium) at 37° C. in a humidified atmosphere of 5% CO2.
(§2) Determination of Melanin Content and Cytotoxicity in B16 cells: To analyse the effect of cannabigerol (1) on melanogenesis, B16 melanoma cells were used as a cellular assay system to evaluate the depigmenting activity in cell cultures. B16 cells (4A5) were treated for 3 days with several doses of the compounds (cannabigerol (1) or kojic acid). The cells were washed with phosphate buffer saline (PBS) at the end of the treatment and dissolved in 1 N NaOH containing 10% DMSO for 1 h at 60° C. The absorbance at 405/490 nm was measured (TriStar LB 941 Berthold Technologies, GmbH & Co. KG) and the melanin content quantified with a reference standard of synthetic melanin (Sigma-Aldrich, St Louis, Mo., USA). Cytotoxicity was measured in parallel by the MTT assay to discard that melanin inhibition is not masked by cytotoxicity. Kojic acid was used as a positive control.

[2] = target: T1, tyrosinase (Mus musculus, UniProt P11344); experiment: Measurement of tyrosinase activity in lysates of treated B16 cells (L-dopa, dopachrome formation, 475 nm); format: cell-based
T1 construct: host or cells: B16 mouse melanocytes (melanoma line)
T1 sequence (P11344 19-533): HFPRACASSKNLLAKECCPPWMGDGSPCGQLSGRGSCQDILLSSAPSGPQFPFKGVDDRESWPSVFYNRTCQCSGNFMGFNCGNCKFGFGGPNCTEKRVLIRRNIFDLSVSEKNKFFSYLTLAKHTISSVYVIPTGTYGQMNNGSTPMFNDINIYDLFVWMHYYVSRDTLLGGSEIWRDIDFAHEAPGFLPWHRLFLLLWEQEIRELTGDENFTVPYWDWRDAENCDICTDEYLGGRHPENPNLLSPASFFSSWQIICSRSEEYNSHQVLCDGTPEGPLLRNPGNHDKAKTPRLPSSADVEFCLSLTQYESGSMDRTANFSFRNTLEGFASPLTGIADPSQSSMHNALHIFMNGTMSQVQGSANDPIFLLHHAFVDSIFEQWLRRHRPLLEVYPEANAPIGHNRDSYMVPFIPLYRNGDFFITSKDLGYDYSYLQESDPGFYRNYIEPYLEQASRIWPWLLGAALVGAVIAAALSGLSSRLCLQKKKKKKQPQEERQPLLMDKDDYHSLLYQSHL
Description: as §1
Measurements of Tyrosinase Activity: To measure the tyrosinase activity of the cells, B16 cells were treated for 3 days with several doses of the compounds (cannabigerol (1) or kojic acid), then lysed by incubation at 4° C. for 30 min in lysis buffer (20 mM sodium phosphate, pH 6.8, 1% Triton X-100, 1 mM PMSF, 1 mM EDTA) containing protease inhibitors cocktail. The lysates were centrifuged at 15.000 g for 10 min to obtain the supernatant as the source of tyrosinase. The reaction mixture contained 20 mM phosphate buffer, pH 6.8, 1.25 mM L-dopa (Sigma-Aldrich). After incubation at 37° C. for 30 min, dopachrome formation was monitored by measuring absorbance at a wavelength of 475 nm in a microplate reader (TriStar LB 941 Berthold Technologies, GmbH & Co. KG). Kojic acid was used as a positive control.

[3] = system: B16 cells; format: cell-based, mouse
Description: as §2

Compound	reduction of melanin production ([1]; 2 mM, B16 cells, 3 days)	inhibition of tyrosinase compared with positive control ([2]; 1 μg/ml cannabigerol vs 2 mM kojic acid, B16 cells, 3 days)	doses at which tyrosinase activity was inhibited ([2]; B16 cells treated for 3 days) [µg/mL]	inhibition compared with reference inhibitor in the used test systems (tyrosinase activity, melanin production; FIG. 2 and 3) ([2]; B16 melanocytes)	melanin production, dose dependence [1]	inhibition at 1 µg/mL ([1]; Mus musculus, B16, 72 h, read-out: inhibition of melanin production) [%]	cytotoxic effects [3]
O=c1cc(CO)occ1O [kojic acid, reference compound]	approx. 20%	–	–	–	–	–	–
CCCCCc1cc(O)c(C/C=C(\C)CCC=C(C)C)c(O)c1 [Cannabigerol (1), Cannabigerol]	–	as potent as the effect of 2 mM of kojic acid	≥ 0.5	stronger inhibition than the used reference inhibitor kojic acid	dose dependently prevented	~30	no cytotoxic effects
